Data published in ChEMBL document CHEMBL1201862, “PubChem BioAssay data set” (2004).
Calls of active or inactive are those of the source.

How the values were obtained:
Bcl-2-related protein A1 = biological target: T1, Bcl-2-related protein A1 (Mus musculus, UniProt Q07440); format: functional;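 also: confirmatory dose–response counterscreen on Bfl-1, used to check hits from a UBC13 polyubiquitin inhibitor campaign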
T1 sequence (Q07440 whole entry): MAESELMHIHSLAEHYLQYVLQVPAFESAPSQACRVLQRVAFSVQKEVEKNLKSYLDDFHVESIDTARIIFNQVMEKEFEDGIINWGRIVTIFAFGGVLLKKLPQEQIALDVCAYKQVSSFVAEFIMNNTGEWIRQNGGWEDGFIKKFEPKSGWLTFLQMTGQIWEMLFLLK

[1] = biological target: T2, Ubiquitin-conjugating enzyme E2 N (Homo sapiens, UniProt P61088); format: functional;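 also: Dose-response confirmation in a TR-FRET assay detecting UBC13-driven polyubiquitin chain formation, inhibition measured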
T2 sequence (P61088 whole entry): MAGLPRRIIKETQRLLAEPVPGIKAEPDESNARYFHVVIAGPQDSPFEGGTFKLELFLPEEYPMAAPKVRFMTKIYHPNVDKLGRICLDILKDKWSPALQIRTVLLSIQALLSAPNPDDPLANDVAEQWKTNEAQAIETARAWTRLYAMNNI

[2] = biological target: G-protein coupled receptor 55 (Homo sapiens, UniProt Q9Y2T6); experiment: GPR55 agonists via beta-arrestin recruitment, primary screen, imaging, U2OS cells, beta-arrestin-GFP redistribution (AID 1961); format: functional
Large T antigen = Large T antigen (Simian virus 40, UniProt P03070); format: functional, Betapolyomavirus macacae;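 also: Confirmatory-stage PubChem screen for compounds that inhibit SV40 T antigen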
[3] = biological target: DNA dC->dU-editing enzyme APOBEC-3A (Homo sapiens, UniProt P31941); experiment: APOBEC3A DNA deaminase inhibitors, dose response, biochemical (AID 504722); format: functional
[4] = biological target: Glucose-6-phosphate 1-dehydrogenase (Homo sapiens, UniProt P11413); experiment: human G6PD enzyme inhibitors, dose response, selectivity assay for P. falciparum G6PD inhibitor project, biochemical, fluorescence (AID 504792); format: functional
[5] = biological target: Eukaryotic translation initiation factor 4E (Mus musculus, UniProt P63073); experiment: eIF4E–eIF4G protein interaction inhibitors, dose response, biochemical, TR-FRET (AID 855); format: functional;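 also: potency for disrupting eIF4E binding to eIF4GI seen as loss of FRET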
[6] = biological target: DNA dC->dU-editing enzyme APOBEC-3G (Homo sapiens, UniProt Q9HC16); experiment: Dose Response confirmation of small molecule APOBEC3G DNA Deaminase Inhibitors via a fluorescence-based single-stranded DNA deaminase assay. [Related pubchem assays (depositor defined):AID493012, AID493028]; format: functional
Beta-galactosidase = Beta-galactosidase (Escherichia coli, UniProt Q8VNN2); experiment: beta-galactosidase enzyme inhibitors and activators, dose response, artefact control for CCR6 antagonist project, biochemical, E. coli enzyme, set 3 (AID 504712); format: functional
Trypsin = Trypsin (Sus scrofa, UniProt P00761); experiment: porcine trypsin inhibitors, dose response, selectivity assay for Rce1 protease inhibitor project, biochemical, quenched peptide fluorescence, cherry-pick (AID 488789)
CAAX prenyl protease 2 = biological target: T3, CAAX prenyl protease 2 (Saccharomyces cerevisiae S288c, UniProt Q03530); format: biochemical
T3 sequence (Q03530 whole entry): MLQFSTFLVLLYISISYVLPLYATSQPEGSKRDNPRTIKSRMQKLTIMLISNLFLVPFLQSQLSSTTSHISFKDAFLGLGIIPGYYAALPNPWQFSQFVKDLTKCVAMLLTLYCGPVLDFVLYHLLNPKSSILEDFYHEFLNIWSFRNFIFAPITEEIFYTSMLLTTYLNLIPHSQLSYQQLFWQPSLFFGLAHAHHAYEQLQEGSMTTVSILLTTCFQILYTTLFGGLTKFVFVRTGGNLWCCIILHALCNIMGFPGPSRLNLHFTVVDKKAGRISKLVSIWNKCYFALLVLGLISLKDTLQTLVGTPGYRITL

[7] = HEp-2 cell cytotoxicity, dose response, cytotoxicity control for RSV inhibitor project, HTS (AID 2410); format: functional; conditions: human respiratory syncytial virus
Vero = experiment: cells; format: functional, cell-based; conditions: Chlorocebus sabaeus

Sequence of G-protein coupled receptor 55 (Q9Y2T6 whole entry): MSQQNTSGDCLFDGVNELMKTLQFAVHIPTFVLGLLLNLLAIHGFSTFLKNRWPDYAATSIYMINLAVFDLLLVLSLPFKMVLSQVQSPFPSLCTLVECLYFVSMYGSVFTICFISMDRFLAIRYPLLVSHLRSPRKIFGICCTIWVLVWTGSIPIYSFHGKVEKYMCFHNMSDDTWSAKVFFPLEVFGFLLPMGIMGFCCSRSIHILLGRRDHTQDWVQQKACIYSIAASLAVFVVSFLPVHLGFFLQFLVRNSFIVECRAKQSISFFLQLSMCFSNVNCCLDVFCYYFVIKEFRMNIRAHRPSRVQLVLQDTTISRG
Sequence of DNA dC->dU-editing enzyme APOBEC-3G (Q9HC16 whole entry): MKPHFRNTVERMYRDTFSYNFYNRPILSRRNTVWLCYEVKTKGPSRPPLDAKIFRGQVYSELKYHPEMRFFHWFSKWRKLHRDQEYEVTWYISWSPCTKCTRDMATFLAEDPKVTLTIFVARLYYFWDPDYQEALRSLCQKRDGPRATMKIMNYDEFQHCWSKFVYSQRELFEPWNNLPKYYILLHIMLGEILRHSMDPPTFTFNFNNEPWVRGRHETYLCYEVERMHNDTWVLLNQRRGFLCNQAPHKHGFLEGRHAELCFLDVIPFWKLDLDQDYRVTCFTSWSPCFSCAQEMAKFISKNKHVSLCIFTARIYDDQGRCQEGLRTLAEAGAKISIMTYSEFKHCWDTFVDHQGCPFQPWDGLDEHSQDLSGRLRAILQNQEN
Sequence of DNA dC->dU-editing enzyme APOBEC-3A (P31941 whole entry): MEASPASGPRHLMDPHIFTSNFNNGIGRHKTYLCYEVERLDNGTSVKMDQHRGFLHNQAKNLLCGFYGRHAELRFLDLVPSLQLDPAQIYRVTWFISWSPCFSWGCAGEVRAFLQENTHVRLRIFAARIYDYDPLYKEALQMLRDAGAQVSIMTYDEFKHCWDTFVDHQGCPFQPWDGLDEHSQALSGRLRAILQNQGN
Sequence of Large T antigen (P03070 whole entry): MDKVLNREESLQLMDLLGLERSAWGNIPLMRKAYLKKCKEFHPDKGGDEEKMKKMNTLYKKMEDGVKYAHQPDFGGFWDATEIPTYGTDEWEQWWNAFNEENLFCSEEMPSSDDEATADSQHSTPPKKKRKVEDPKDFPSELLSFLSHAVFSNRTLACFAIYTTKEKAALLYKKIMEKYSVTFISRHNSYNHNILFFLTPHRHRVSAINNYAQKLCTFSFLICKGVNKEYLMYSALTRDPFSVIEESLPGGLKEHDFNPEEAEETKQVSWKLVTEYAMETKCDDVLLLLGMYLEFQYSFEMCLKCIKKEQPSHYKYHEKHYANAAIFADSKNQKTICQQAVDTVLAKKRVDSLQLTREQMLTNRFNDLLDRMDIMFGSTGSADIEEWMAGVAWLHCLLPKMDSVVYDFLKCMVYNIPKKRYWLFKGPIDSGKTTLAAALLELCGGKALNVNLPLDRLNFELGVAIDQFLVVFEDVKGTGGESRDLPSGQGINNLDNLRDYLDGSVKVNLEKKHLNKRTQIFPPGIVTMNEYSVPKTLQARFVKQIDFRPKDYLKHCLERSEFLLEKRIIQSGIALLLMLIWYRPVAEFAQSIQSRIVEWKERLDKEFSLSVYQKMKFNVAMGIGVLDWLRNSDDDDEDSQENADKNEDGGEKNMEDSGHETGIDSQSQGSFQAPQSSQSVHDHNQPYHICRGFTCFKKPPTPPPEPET
Sequence of Eukaryotic translation initiation factor 4E (P63073 whole entry): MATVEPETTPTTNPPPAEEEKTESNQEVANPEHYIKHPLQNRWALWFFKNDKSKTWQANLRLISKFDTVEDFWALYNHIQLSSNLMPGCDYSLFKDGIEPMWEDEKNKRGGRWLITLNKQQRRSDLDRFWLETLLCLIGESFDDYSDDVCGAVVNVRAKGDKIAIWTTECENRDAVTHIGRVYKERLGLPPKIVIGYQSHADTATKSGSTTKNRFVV
Sequence of Beta-galactosidase (Q8VNN2 whole entry): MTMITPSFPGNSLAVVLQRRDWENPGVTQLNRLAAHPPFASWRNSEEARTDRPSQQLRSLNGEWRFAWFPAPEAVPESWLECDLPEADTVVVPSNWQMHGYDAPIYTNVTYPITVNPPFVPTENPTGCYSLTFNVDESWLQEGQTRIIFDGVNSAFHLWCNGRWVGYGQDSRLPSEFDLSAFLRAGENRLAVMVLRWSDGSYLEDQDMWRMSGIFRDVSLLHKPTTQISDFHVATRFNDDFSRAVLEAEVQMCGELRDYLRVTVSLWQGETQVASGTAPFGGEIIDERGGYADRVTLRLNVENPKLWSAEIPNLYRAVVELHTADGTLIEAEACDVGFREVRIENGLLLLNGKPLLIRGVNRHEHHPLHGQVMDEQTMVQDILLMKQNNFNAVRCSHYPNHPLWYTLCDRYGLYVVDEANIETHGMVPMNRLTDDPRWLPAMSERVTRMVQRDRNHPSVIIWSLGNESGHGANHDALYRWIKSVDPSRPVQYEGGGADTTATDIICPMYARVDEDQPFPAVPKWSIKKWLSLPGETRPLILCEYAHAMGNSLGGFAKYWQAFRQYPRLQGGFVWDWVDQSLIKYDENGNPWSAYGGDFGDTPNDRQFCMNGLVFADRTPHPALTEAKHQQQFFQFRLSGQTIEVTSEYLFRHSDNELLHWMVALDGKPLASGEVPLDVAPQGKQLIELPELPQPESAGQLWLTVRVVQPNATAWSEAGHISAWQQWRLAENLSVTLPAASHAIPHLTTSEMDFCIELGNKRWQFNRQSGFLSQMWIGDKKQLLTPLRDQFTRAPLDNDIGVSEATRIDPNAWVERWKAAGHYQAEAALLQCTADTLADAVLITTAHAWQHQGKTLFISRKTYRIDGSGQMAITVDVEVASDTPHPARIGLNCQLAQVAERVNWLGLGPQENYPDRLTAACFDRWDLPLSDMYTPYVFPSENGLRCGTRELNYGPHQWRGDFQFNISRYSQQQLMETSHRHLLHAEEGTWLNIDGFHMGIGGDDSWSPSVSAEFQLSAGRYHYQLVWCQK
Sequence of Trypsin (P00761 whole entry): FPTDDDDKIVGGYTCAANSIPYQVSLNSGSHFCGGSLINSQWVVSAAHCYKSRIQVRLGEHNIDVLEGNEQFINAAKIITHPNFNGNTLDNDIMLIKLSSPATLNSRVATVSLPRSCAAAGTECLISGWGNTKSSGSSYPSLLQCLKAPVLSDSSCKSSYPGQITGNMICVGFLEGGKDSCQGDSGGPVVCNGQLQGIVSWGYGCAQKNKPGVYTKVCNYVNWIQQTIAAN
Sequence of Glucose-6-phosphate 1-dehydrogenase (P11413 whole entry): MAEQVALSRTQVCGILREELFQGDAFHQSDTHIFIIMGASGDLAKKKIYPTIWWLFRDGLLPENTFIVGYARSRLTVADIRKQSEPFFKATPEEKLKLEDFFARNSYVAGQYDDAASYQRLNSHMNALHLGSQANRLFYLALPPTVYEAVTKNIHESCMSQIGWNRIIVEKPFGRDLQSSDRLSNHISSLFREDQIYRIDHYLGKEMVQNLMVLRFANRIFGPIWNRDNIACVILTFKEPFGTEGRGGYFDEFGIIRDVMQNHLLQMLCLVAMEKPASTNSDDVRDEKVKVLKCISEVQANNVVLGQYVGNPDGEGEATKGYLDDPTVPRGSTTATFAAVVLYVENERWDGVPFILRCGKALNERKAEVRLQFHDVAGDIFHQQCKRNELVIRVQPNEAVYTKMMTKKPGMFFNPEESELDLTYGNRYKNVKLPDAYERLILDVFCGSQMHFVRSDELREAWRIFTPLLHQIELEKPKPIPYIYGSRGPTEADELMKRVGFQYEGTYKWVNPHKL

Compound: O=C(CSc1nc2ccsc2c(=O)n1Cc1ccc(C(=O)O)cc1)NCC1CCCO1 (stereo not drawn)
- IC50 (Bcl-2-related protein A1): > 20 µM (inactive)
- IC50 [1]: 17.5 µM (active)

Compound: CCN(CC)S(=O)(=O)c1ccc2c(c1)nc(CCC(=O)Nc1cccc(C(F)(F)F)c1)n2CC
- EC50 [2]: 7.88 µM (active)

Compound: Cc1nc(SCc2ccc(F)cc2)c2oc3ccccc3c2n1
- EC50 [2]: > 32 µM (inactive)

Compound: CCN(CC)CCNC(=O)CCCCn1c(=S)[nH]c2c([nH]c3ccc(OC)cc32)c1=O
- IC50 (Large T antigen): 8.17 µM (active)
- IC50 [3]: > 100 µM (inactive)
- IC50 [4]: > 80 µM (inactive)
- IC50 [5]: > 64 µM (inactive)
- IC50 [6]: 2.5 µM (active)

Compound: O=C(Nc1cc(S(=O)(=O)N2CCOCC2)ccc1N1CCOCC1)c1cc2c(s1)CCC2
- EC50 [2]: 6.36 µM (active)

Compound: CCN(CC)CCn1c(NC(=O)c2ccccc2O)nc2ccccc21
- IC50 (Beta-galactosidase): > 66.6 µM (inactive)

Compound: O=C1CSC(c2cn(-c3ccccc3)nc2-c2cc3ccccc3oc2=O)N1Cc1ccco1 (stereo not drawn)
- AC50 (Trypsin): 9.09 µM (active)
- AC50 (CAAX prenyl protease 2): 30.8 µM (active)

Compound: CCCc1cc(-c2n[nH]c(=S)n2CC)cs1
- IC50 [3]: > 100 µM (inactive)
- IC50 [6]: 6.08 µM (active)

Compound: CN1c2ccccc2C(C)(C)C12CC(c1ccc(S(=O)(=O)N3CCCCC3)cc1)=NO2 (stereo not drawn)
- CC50 [7]: 6.73 µM (active)
- IC50 (Vero): 4.14 µM (active)
- IC50 (cells): 12 µM (active)
